Measurements: patent publication US6737433B1, “1-N-phenylamino-1H-imidazole derivatives as aromatase inhibitors and pharmaceutical compositions containing them” (Laboratoire Theramex, priority 2002, dated 2004)

Tested on: not given
Experiment: not given
Settings: not given

| melting point [°C] | Structure (SMILES) |
| --- | --- |
| 132 | N#Cc1ccc(N(Cc2ccc(F)c(F)c2)n2ccnc2)cc1 [Example 17, 4-[N-(1H-imidazol-1-yl)-N-(3,4-difluorophenylmethyl)amino]benzonitrile] |
| 134 | N#Cc1ccc(N(Cc2ccc(C(F)(F)F)cc2)n2ccnc2)cc1 [Example 6, 4-[N-(1H-imidazol-1-yl)-N-(4-trifluoromethylphenylmethyl)amino]benzonitrile] |

Molecular target: T1, aromatase (Rattus norvegicus, UniProt P22443)
T1 construct: from tissue; host or cells: whole animal: adult female Wistar rats (endogenous enzyme)
T1 sequence (P22443 1-508): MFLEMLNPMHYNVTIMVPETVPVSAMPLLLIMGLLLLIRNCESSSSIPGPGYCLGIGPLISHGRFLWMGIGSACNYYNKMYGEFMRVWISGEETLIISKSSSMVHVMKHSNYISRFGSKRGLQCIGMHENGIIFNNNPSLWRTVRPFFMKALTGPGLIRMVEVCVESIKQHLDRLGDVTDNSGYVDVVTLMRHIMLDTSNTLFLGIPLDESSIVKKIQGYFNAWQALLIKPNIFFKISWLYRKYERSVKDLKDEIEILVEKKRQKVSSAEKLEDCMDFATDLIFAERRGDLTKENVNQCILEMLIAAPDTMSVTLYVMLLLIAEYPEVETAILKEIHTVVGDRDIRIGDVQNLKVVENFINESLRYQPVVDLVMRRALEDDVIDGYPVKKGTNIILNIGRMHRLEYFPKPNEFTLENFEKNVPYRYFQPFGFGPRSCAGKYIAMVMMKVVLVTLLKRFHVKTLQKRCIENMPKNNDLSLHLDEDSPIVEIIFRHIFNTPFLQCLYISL
Experiment: Inhibition of aromatase in vivo: inhibition of preovulatory surge of plasma estradiol in female Wistar rats
Settings: single oral dose 10 μg/kg on diestrus, plasma estradiol 24 h later, vs vehicle controls; range = independent studies
Excerpt: Aromatase is the steroidogenic enzyme responsible for the biosynthesis of estradiol, the main female sex hormone among estrogens. In the rat, estradiol is physiologically synthesized to high circulating levels in a particular period during the 4-day estrous cycle: it is the so-called preovulatory surge taking place in the afternoon of proestrus, just before ovulation which occurs during the night between proestrous and estrous phases. A sensitive physiological model for in vivo evaluation of aromatase inhibition was developped based on the inhibition of this preovulatory surge of estradiol levels.
Adult female Wistar rats are monitored for regular 4-day estrous cyclicity by daily vaginal smear examination; after 2 or 3 regular cycles, animals are treated by a single oral administration of the very low discriminative dose of 10 micrograms/kg in a 4 ml/kg volume around 04:00 PM on diestrus, i.e. on the day before proestrus. Precisely 24 hours later, aortic blood samples are drawn under gaseous anesthesia. Plasma estradiol levels are measured by radioimmunoassay with commercially available kits (Diagnostic Systems Laboratories, Webster, Tex., U. S. A.). Control and test groups usually consist of 7 to 10 rats, depending on the number of regularly cycling rats to distribute among study groups. Results are expressed in pg/ml and then in % of inhibition taking the estradiol levels of control animals receiving only the oral vehicle as the 100% reference to allow comparisons between different independent studies, since the preovulatory surge level may vary in each control group from one study to another between about 25 to 40 pg/ml.

| Structure (SMILES) | % inhibition at 10 μg/kg |
| --- | --- |
| N#Cc1ccc(N(Cc2ccc(F)cc2)n2ccnc2)cc1 [Example 14, 4-[N-(1H-imidazol-1-yl)-N-(4-fluorophenylmethyl)amino]benzonitrile] | 49%-57% |
| CC(C)(C#N)c1cc(Cn2cncn2)cc(C(C)(C)C#N)c1 [Anastrozole, anastrozole, reference compound] | 18%-33% |
| N#Cc1ccc(N(Cc2ccc(Br)cc2)n2cncn2)cc1 [YM 511, reference compound] | 35% |
| N#Cc1ccc(N(Cc2ccc(F)c(F)c2)n2ccnc2)cc1 [Example 17, 4-[N-(1H-imidazol-1-yl)-N-(3,4-difluorophenylmethyl)amino]benzonitrile] | 60% |
| N#Cc1ccc(CN(c2ccc(C#N)cc2)n2ccnc2)cc1 [Example 11, 4-[N-(1H-imidazol-1-yl)-N-(4-cyanophenylmethyl)amino]benzonitrile] | 57%-59% |
| N#Cc1ccc(N(Cc2ccc(Cl)cc2)n2ccnc2)cc1 [Example 7, 4-[N-(1H-imidazol-1-yl)-N-(4-chlorophenylmethyl)amino]benzonitrile] | 47% |
| N#Cc1ccc(N(Cc2ccc(C(F)(F)F)cc2)n2ccnc2)cc1 [Example 6, 4-[N-(1H-imidazol-1-yl)-N-(4-trifluoromethylphenylmethyl)amino]benzonitrile] | 57% |

Molecular target: T2, human aromatase (Homo sapiens, UniProt P11511)
T2 construct: The JEG-3 cell line, derived from a human placental choriocarcinoma, is intrinsically very rich in human aromatase; endogenous in cells; host or cells: JEG-3 (human placental choriocarcinoma)
T2 sequence (P11511 1-503): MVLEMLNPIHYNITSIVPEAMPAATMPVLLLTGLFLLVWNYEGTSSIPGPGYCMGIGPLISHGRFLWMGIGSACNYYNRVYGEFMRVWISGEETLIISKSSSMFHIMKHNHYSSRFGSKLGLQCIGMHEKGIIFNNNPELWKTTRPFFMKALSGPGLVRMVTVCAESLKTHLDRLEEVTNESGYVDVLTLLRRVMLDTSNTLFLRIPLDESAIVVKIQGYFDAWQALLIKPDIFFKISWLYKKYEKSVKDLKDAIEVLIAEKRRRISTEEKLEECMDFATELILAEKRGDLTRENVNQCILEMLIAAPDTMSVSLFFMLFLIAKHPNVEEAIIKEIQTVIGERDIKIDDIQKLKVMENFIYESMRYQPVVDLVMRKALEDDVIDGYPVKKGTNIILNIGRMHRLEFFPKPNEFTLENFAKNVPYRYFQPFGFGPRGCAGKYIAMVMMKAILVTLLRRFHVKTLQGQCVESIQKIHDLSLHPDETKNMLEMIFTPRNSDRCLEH
Experiment: Inhibition of human aromatase in vitro in JEG-3 cells (3H-water release from 1β-3H-androstenedione)
Assay type: cell-based
Settings: 10 nM 1β-3H-androstenedione, 2 h incubation
Method: Stocks of JEG-3 cells are grown up to 80% of confluence as monolayers in plastic flasks in minimum Eagle's medium with 1 g/l glucose and 10% decomplemented fetal calf serum at pH 7.4 and 37° C., under a 5% CO2 atmosphere. Then, 24 hours before aromatase activity measurement, JEG-3 cells are distributed for seeding in 96-well microplates (60,000 to 100,000 viable cells in 100 μl of culture medium per well); 24 hours later, microplates are rinsed and fresh medium containing the radioactive aromatase substrate (1β-^3H-androstenedione, 10 nM) is added together with test compounds dissolved with 1% dimethylsulfoxyde in a test concentration range between 10^−11 and 10^−4 M in a total volume of 150 μl.
Two hours after the beginning of the incubation, 100 μl of the supernatants are transferred to homologous new 96-well microplates. A solution of dextran-coated charcoal (1%) is added in each well (100 μl/well); after standing for 10 minutes on ice, microplates are centrifuged (1500 g) for 10 more minutes at 4° C. All steroids, including the radioactive substrate and the newly biosynthesized estrogens, are trapped complexed by the charcoal; only the ^3H-water specifically formed during aromatisation of 1β-^3H-androstenedione, involving a specific oxidative step removing the 1β-^3H, remains in the supernatant at this stage.
Finally, aromatase activity is expressed in fmoles/μg DNA in 2 hours and aromatase inhibition in percentage of control incubation without inhibitors.

| Structure (SMILES) | IC50 [nM] |
| --- | --- |
| N#Cc1ccc(N(Cc2ccc(F)cc2)n2ccnc2)cc1 [Example 14, 4-[N-(1H-imidazol-1-yl)-N-(4-fluorophenylmethyl)amino]benzonitrile] | 0.16 ± 0.02 |
| N#Cc1ccc(N(Cc2ccc(Br)cc2)n2cncn2)cc1 [YM 511, reference compound] | 0.3 ± 0.04 |
| N#Cc1ccc(N(Cc2ccc(F)c(F)c2)n2ccnc2)cc1 [Example 17, 4-[N-(1H-imidazol-1-yl)-N-(3,4-difluorophenylmethyl)amino]benzonitrile] | 0.24 ± 0.02 |
| N#Cc1ccc(CN(c2ccc(C#N)cc2)n2ccnc2)cc1 [Example 11, 4-[N-(1H-imidazol-1-yl)-N-(4-cyanophenylmethyl)amino]benzonitrile] | 0.18 ± 0.02 |
| N#Cc1ccc(N(Cc2ccc(Cl)cc2)n2ccnc2)cc1 [Example 7, 4-[N-(1H-imidazol-1-yl)-N-(4-chlorophenylmethyl)amino]benzonitrile] | 0.14 ± 0.05 |
| N#Cc1ccc(N(Cc2ccc(C(F)(F)F)cc2)n2ccnc2)cc1 [Example 6, 4-[N-(1H-imidazol-1-yl)-N-(4-trifluoromethylphenylmethyl)amino]benzonitrile] | 0.31 ± 0.01 |
